Active and inactive are the calls of the source. The rule behind the calls is not given here.
Molecular target: Cyclin-dependent kinase 2 (Homo sapiens) (UniProt P24941)
Experiment: Binding affinity to human CDK2

Activity: Active
Compound: O=c1c(O)c(-c2ccc(O)c(O)c2)oc2c(O[C@@H]3O[C@H](CO)[C@@H](O)[C@H](O)[C@H]3O)c(O)cc(O)c12

From ChEMBL document CHEMBL1140807, “A flavonoid gossypin binds to cyclin-dependent kinase 2” (Bioorg Med Chem Lett, 2008)
